Experimental data as given in patent publication US12275731B2, “Azaindole inhibitors of wild-type and mutant forms of LRRK2” (DANA-FARBER CANCER INSTITUTE, INC., priority 2018, dated 2025).

What was measured:
Assay in all cases: KinomeScan profiling
Assay type in all cases: binding
[1] = molecular target: T1, ABL1(T315I)-phosphorylated (Homo sapiens, UniProt P00519, T315I); conditions: read-out: % control
T1 construct: purchased KinomeScan®
Method in brief: (§1)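 Compounds were screened at 1 μM in DMSO across a 468-kinase KinomeScan panel. Binding was expressed as % control, scaled between a positive control (0%) and DMSO (100%) using luminescence signal. A value under 35% counted as active.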

FGR = FGR (Homo sapiens, UniProt P09769); conditions: read-out: % control
Method in brief: as §1

PRKG2 = molecular target: T2, PRKG2 (Homo sapiens, UniProt Q13237); conditions: PRKG2, 1 μM; read-out: % control
T2 sequence (Q13237 1-762): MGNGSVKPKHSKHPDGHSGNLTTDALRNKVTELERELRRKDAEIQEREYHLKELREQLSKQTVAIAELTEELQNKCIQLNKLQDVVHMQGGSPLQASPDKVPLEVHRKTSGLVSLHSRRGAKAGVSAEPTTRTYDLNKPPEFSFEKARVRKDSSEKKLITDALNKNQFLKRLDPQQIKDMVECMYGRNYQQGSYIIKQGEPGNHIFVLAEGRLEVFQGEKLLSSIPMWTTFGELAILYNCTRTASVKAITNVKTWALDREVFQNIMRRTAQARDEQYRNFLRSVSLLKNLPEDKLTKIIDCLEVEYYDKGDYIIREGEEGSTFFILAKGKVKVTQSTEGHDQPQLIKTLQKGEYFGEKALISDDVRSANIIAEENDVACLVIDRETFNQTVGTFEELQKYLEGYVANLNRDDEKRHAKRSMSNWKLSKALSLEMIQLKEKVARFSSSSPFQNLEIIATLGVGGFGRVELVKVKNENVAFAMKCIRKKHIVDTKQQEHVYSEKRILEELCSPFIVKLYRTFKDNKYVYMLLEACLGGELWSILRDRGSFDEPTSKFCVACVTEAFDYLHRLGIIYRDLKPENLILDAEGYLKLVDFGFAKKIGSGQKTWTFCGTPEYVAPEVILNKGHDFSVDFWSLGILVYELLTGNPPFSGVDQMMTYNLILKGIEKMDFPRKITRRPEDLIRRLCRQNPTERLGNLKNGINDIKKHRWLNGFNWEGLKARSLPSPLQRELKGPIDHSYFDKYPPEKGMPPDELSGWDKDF
Method in brief: as §1

NEK5 = molecular target: T3, NEK5 (Homo sapiens, UniProt Q6P3R8); conditions: NEK5, 1 μM; read-out: % control
T3 sequence (Q6P3R8 1-708): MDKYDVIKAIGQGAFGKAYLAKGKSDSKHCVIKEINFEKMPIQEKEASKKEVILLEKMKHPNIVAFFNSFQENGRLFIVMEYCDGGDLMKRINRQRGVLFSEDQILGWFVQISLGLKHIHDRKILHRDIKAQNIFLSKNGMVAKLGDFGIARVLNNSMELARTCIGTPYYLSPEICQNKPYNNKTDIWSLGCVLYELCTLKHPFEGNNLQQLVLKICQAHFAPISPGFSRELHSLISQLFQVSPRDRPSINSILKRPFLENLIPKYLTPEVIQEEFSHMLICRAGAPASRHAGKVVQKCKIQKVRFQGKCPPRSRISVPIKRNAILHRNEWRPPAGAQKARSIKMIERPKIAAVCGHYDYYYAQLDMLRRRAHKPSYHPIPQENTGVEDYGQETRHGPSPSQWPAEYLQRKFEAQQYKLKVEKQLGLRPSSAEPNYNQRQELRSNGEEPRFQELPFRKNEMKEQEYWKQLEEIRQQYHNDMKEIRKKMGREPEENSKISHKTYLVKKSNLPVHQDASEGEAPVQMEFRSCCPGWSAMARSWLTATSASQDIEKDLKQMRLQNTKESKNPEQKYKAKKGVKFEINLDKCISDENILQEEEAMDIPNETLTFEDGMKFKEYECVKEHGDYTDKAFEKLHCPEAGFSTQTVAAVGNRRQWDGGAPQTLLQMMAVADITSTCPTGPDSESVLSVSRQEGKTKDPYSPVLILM
Method in brief: as §1

PRP4 = PRP4 (Homo sapiens, UniProt Q13523); conditions: PRP4, 1 μM; read-out: % control
Chain of PRP4 (Q13523 whole entry): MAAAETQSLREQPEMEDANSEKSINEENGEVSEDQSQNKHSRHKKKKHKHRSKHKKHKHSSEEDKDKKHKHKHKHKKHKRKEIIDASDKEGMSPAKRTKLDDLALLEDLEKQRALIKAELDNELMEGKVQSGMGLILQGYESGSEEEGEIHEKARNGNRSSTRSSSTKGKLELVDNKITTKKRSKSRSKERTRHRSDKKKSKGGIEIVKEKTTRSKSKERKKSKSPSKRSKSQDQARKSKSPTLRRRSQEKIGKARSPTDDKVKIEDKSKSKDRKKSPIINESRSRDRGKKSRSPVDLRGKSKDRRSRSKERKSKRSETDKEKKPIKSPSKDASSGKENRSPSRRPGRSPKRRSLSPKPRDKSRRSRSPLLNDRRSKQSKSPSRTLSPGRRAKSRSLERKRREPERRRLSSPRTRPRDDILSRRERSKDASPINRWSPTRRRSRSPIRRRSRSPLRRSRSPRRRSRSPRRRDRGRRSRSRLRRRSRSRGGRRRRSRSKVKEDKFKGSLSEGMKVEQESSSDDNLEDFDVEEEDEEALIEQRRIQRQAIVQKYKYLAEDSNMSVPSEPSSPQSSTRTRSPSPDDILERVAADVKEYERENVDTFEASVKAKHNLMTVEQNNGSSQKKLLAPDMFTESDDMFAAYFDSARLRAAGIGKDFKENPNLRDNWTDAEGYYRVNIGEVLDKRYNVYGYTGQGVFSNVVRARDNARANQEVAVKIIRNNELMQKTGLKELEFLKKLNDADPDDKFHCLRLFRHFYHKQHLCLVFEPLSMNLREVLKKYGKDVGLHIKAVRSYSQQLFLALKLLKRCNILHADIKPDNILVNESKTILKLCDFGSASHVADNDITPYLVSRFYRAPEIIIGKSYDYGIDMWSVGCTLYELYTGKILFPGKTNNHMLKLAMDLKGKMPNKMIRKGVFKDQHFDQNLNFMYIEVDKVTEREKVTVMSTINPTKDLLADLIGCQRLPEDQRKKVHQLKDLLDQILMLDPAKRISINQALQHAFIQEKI
Method in brief: as §1

PIK3CB = molecular target: T4, PIK3CB (Homo sapiens, UniProt P42338); conditions: read-out: % control
T4 construct: purchased KinomeScan® (panel service)
Method in brief: as §1

PIP5K1C = molecular target: T5, PIP5K1C (Homo sapiens, UniProt O60331); conditions: read-out: % control
T5 construct: purchased KinomeScan® (panel service)
T5 sequence (O60331 whole entry): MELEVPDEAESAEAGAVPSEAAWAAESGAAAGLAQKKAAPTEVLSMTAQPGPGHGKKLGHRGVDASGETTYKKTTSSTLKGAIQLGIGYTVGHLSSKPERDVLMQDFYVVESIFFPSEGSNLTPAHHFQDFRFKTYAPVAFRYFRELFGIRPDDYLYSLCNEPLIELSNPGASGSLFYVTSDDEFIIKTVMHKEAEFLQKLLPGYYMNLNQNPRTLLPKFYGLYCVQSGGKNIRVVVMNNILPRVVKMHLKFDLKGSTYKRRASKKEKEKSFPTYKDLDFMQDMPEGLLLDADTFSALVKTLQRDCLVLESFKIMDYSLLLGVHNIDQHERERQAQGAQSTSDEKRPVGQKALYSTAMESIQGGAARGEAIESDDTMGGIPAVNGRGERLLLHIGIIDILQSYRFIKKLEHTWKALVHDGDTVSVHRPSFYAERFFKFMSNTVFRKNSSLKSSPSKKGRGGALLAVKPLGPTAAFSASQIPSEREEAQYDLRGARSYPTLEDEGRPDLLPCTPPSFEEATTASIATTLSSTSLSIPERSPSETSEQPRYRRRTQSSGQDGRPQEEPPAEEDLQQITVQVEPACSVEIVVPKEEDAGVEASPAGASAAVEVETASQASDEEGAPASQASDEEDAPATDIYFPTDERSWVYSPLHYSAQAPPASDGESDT
Method in brief: as §1

SRPK3 = molecular target: T6, SRPK3 (Homo sapiens, UniProt Q9UPE1); conditions: SRPK3, 1 μM; read-out: % control
T6 construct: purchased KinomeScan® (panel service)
T6 sequence (Q9UPE1 whole entry): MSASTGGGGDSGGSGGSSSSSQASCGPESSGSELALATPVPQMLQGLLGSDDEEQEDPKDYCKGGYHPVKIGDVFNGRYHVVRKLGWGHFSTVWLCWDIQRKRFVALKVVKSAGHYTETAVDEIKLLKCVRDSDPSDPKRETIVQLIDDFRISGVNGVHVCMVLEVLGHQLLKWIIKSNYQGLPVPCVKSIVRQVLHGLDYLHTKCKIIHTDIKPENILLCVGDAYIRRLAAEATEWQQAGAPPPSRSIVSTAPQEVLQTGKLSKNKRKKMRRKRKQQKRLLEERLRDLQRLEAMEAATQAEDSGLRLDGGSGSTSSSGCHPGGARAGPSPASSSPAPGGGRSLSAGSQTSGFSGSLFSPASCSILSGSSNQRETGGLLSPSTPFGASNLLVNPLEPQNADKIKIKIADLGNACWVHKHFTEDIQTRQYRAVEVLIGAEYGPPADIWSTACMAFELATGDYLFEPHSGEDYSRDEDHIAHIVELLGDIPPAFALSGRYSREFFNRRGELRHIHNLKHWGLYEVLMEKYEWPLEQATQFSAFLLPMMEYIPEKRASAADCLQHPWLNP
Method in brief: as §1

ZAK = ZAK (Homo sapiens, UniProt Q9NYL2); conditions: read-out: % control
Chain of ZAK (Q9NYL2 whole entry): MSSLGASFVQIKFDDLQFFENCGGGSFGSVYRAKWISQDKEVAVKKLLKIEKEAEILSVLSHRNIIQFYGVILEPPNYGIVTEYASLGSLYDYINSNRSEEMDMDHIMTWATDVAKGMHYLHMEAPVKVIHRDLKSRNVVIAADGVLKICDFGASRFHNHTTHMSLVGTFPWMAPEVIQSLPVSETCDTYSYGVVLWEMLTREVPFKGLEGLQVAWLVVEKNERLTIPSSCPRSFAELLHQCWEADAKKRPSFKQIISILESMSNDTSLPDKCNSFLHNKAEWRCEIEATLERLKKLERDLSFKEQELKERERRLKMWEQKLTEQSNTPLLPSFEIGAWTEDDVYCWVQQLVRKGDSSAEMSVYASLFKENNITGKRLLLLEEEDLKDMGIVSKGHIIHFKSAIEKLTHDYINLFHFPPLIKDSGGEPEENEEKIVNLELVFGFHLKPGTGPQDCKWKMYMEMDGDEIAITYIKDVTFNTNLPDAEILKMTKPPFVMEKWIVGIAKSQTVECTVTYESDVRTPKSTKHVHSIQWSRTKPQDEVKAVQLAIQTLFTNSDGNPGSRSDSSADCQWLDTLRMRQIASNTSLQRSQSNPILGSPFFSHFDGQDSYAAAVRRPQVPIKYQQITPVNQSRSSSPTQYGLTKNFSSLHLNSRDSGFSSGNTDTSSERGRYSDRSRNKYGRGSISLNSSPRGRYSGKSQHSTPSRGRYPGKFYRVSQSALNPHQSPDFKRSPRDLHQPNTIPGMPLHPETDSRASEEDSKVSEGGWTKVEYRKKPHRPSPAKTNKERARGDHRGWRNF
Method in brief: as §1

PKN1 = PKN1 (Homo sapiens, UniProt Q16512); conditions: PKN1, 1 μM; read-out: % control
Chain of PKN1 (Q16512 whole entry): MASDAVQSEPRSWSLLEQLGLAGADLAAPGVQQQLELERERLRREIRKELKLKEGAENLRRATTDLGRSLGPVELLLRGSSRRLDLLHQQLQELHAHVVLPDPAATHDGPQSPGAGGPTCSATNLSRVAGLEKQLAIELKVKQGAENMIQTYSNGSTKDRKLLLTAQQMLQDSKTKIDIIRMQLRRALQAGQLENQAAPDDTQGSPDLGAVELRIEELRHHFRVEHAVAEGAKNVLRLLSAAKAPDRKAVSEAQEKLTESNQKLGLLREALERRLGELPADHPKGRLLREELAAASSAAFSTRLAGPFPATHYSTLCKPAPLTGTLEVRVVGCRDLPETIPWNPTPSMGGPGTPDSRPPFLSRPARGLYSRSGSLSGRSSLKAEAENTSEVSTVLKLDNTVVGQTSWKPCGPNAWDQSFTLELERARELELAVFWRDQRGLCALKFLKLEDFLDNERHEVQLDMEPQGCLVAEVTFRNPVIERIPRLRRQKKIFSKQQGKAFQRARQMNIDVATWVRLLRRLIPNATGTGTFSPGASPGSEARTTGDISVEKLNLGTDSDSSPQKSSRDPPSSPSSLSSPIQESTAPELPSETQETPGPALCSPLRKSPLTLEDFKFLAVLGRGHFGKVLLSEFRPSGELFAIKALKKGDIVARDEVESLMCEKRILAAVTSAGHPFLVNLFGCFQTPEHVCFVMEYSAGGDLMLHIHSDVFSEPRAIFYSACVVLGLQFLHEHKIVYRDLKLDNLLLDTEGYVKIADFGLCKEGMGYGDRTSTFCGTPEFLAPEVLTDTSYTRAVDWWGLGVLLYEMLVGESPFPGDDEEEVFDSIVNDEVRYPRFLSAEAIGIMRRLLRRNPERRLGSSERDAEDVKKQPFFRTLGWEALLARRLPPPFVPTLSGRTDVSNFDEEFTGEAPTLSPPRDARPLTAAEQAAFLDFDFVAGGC
Method in brief: as §1

RET(V804M) = RET(V804M) (Homo sapiens, UniProt P07949, V804M); conditions: read-out: % control
Chain of RET(V804M) (P07949 29-1114 V804M): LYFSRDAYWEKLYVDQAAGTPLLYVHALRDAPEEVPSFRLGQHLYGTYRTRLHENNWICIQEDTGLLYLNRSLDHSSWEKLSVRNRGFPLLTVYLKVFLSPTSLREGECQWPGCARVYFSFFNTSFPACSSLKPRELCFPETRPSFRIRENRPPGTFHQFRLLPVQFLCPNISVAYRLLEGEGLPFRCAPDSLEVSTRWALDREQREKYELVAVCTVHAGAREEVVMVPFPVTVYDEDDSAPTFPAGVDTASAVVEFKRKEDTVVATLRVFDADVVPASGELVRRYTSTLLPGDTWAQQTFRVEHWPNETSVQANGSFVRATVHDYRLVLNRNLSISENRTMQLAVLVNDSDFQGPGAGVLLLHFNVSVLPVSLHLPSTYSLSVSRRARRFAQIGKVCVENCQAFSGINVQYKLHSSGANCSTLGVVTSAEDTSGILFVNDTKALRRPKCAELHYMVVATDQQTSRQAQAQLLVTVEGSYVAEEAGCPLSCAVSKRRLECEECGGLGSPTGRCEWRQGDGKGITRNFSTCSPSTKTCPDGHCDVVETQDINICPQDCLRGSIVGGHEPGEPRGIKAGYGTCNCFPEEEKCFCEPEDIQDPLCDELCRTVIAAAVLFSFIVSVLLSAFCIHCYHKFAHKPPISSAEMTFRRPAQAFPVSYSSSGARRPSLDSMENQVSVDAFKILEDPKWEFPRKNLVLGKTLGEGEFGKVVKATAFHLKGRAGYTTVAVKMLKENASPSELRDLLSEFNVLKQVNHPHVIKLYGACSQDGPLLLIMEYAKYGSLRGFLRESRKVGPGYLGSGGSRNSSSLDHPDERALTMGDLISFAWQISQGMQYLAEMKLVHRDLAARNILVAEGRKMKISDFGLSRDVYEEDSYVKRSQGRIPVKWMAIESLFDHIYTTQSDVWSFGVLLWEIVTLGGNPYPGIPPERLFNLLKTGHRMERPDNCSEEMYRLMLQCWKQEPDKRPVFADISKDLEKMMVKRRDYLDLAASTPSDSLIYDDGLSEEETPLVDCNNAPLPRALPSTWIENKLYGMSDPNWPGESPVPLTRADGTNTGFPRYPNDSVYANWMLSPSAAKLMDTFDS
Method in brief: as §1

SMILES	remaining binding at 1 µM [1]	remaining binding at 1 µM (FGR)	remaining binding at 1 µM (PRKG2)	remaining binding at 1 µM (NEK5)	remaining binding at 1 µM (PRP4)	remaining binding at 1 µM (PIK3CB)	remaining binding at 1 µM (PIP5K1C)	remaining binding at 1 µM (SRPK3)	remaining binding at 1 µM (ZAK)	remaining binding at 1 µM (PKN1)	remaining binding at 1 µM (RET(V804M))
CNc1c(-c2cnn([C@H]3CCN(C(C)=O)C[C@@H]3F)c2)cnc2[nH]cc(Cl)c12 [Compound 77, 1-((3S,4S)-4-(4-(3-chloro-4-(methylamino)-1H-pyrrolo[2,3-b]pyridin-5-yl)-1H-pyrazol-1-yl)-3-fluoropiperidin-1-yl)ethan-1-one]	31%	80%	100%	79%	14%	100%	37%	16%	70%	100%	52%
O=C(c1ccc(-c2cnc3[nH]cc(Cl)c3c2NC2CCCC2)cc1)N1CCC(N2CCOCC2)CC1 [Compound 101, (4-(3-chloro-4-(cyclopentylamino)-1H-pyrrolo[2,3-b]pyridin-5-yl)phenyl)(4-morpholinopiperidin-1-yl)methanone]	95%	94%	100%	99%	38%	100%	57%	9.9%	86%	100%	99%
CNc1c(-c2ccc(C(=O)N3CCC(N4CCOCC4)CC3)cc2)cnc2[nH]cc(Cl)c12 [Compound 96, (4-(3-chloro-4-(methylamino)-1H-pyrrolo[2,3-b]pyridin-5-yl)phenyl)(4-morpholinopiperidin-1-yl)methanone]	52%	95%	100%	99%	47%	100%	49%	17%	75%	95%	61%
